Test results from PubChem BioAssay AID256 (DTP/NCI, 2004).
Values joined by “and” are separate entries in the source; they are usually repeats but may differ in a detail not shown here. Equal entries are not always repeated. Toxic doses and inconclusive results are not listed. Rule for the calls: active = survival T/C of 150% or more; inactive = T/C below 125% in these data.

Tested on: CD2F1 mice, L1210 leukemia ip, survival T/C
Experiment: NCI In Vivo Anticancer Drug Screen. Data for tumor model L1210 Leukemia (intraperitoneal) in CD2F1 (CDF1) mice
Settings: higher = longer survival
Outline: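 Mice carrying a transplanted tumor received test compound or vehicle alone. The value is the measurement in the treated group divided by that in the vehicle-treated control group.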

[1] = endpoint: mean survival time, dose: 50.0 mg/kg/injection, schedule: Q01DX009 (ip), vehicle: Klucel (hydroxypropylcellulose) (HPC)
[2] = endpoint: mean survival time, dose: 100.0 mg/kg/injection, schedule: Q01DX001 (ip), vehicle: saline with Tween-80
[3] = endpoint: mean survival time, dose: 200.0 mg/kg/injection, schedule: Q01DX001 (ip), vehicle: saline with Tween-80
[4] = endpoint: mean survival time, dose: 50.0 mg/kg/injection, schedule: Q01DX009 (ip), vehicle: saline with Tween-80
[5] = endpoint: mean survival time, dose: 100.0 mg/kg/injection, schedule: Q01DX009 (ip), vehicle: saline with Tween-80
[6] = endpoint: mean survival time, dose: 200.0 mg/kg/injection, schedule: Q01DX009 (ip), vehicle: saline with Tween-80
[7] = endpoint: mean survival time, dose: 50.0 mg/kg/injection, schedule: Q04DX003 (ip), vehicle: saline with Tween-80
[8] = endpoint: mean survival time, dose: 100.0 mg/kg/injection, schedule: Q01DX001 (ip), vehicle: saline
[9] = endpoint: mean survival time, dose: 25.0 mg/kg/injection, schedule: Q01DX009 (ip), vehicle: saline with Tween-80
[10] = endpoint: mean survival time, dose: 400.0 mg/kg/injection, schedule: Q01DX009 (ip), vehicle: saline with Tween-80
[11] = endpoint: mean survival time, dose: 100.0 mg/kg/injection, schedule: Q04DX003 (ip), vehicle: saline with Tween-80
[12] = endpoint: mean survival time, dose: 200.0 mg/kg/injection, schedule: Q04DX003 (ip), vehicle: saline with Tween-80
[13] = endpoint: mean survival time, dose: 400.0 mg/kg/injection, schedule: Q04DX003 (ip), vehicle: saline with Tween-80
[14] = endpoint: mean survival time, dose: 75.0 mg/kg/injection, schedule: Q01DX001 (ip), vehicle: saline
[15] = endpoint: mean survival time, dose: 150.0 mg/kg/injection, schedule: Q01DX001 (ip), vehicle: saline
[16] = endpoint: mean survival time, dose: 300.0 mg/kg/injection, schedule: Q01DX001 (ip), vehicle: saline
[17] = endpoint: mean survival time, dose: 100.0 mg/kg/injection, schedule: Q04DX003 (ip), vehicle: saline
[18] = endpoint: mean survival time, dose: 200.0 mg/kg/injection, schedule: Q04DX003 (ip), vehicle: saline

Measured: T/C

C[C@@]12C(=O)OC(=O)[C@]1(C)[C@H]1CC[C@@H]2O1
inactive: endpoint: median survival time, dose: 0.06 mg/kg/injection, schedule: Q01DX009 (ip), vehicle: Klucel (hydroxypropylcellulose) (HPC) 110 % of control | endpoint: median survival time, dose: 0.12 mg/kg/injection, schedule: Q01DX009 (ip), vehicle: Klucel (hydroxypropylcellulose) (HPC) 102 % of control | endpoint: median survival time, dose: 0.25 mg/kg/injection, schedule: Q01DX009 (ip), vehicle: Klucel (hydroxypropylcellulose) (HPC) 103 % of control | endpoint: median survival time, dose: 0.5 mg/kg/injection, schedule: Q01DX009 (ip), vehicle: Klucel (hydroxypropylcellulose) (HPC) 104 % of control | endpoint: median survival time, dose: 1.0 mg/kg/injection, schedule: Q01DX009 (ip), vehicle: Klucel (hydroxypropylcellulose) (HPC) 92 % of control

CN/N=C1\CCC2C3CCc4cc(O)ccc4C3CCC12C (stereo not drawn)
inactive: endpoint: mean survival time, dose: 25.0 mg/kg/injection, schedule: Q01DX009 (ip), vehicle: Klucel (hydroxypropylcellulose) (HPC) 102 % of control | [1] 103 % of control

CC1(C)C2(C)CC12C (stereo not drawn)
inactive: endpoint: mean survival time, dose: 1.25 mg/kg/injection, schedule: Q04DX002 (ip), vehicle: saline with Tween-80 97 % of control | endpoint: mean survival time, dose: 2.5 mg/kg/injection, schedule: Q04DX002 (ip), vehicle: saline with Tween-80 97 % of control | endpoint: mean survival time, dose: 5.0 mg/kg/injection, schedule: Q04DX002 (ip), vehicle: saline with Tween-80 97 % of control | endpoint: mean survival time, dose: 10.0 mg/kg/injection, schedule: Q04DX002 (ip), vehicle: saline with Tween-80 97 % of control

CCCCCCCCCCCCCCCCCCOc1ccc(Cl)cc1
inactive: endpoint: mean survival time, dose: 100.0 mg/kg/injection, schedule: Q04DX002 (ip), vehicle: saline with Tween-80 90 % of control | endpoint: mean survival time, dose: 200.0 mg/kg/injection, schedule: Q04DX002 (ip), vehicle: saline with Tween-80 93 % of control

CC(=O)OCC(OC(C)=O)C(OC(C)=O)C(OC(C)=O)C(COC(=O)c1ccccc1)OC(=O)c1ccccc1 (stereo not drawn)
inactive: [2] 96 % of control | [3] 100 % of control | endpoint: mean survival time, dose: 400.0 mg/kg/injection, schedule: Q01DX001 (ip), vehicle: saline with Tween-80 96 % of control

COB(C1CCCCC1)C1CCCCC1
inactive: endpoint: mean survival time, dose: 100.0 mg/kg/injection, schedule: Q01DX009 (ip), vehicle: other 91 % of control | endpoint: mean survival time, dose: 200.0 mg/kg/injection, schedule: Q01DX009 (ip), vehicle: other 88 % of control

CCCCC(CC)CO.[Ti] (stereo not drawn)
inactive: [4] 103 % of control | [5] 106 % of control | [6] 97 % of control

Cc1ccccc1Nc1c2ccccc2nc2ccccc12
inactive: endpoint: mean survival time, dose: 12.5 mg/kg/injection, schedule: Q04DX003 (ip), vehicle: saline with Tween-80 98 % of control | endpoint: mean survival time, dose: 25.0 mg/kg/injection, schedule: Q04DX003 (ip), vehicle: saline with Tween-80 104 % of control | [7] 87 % of control

O=P(OCCCCCl)(OCCCCCl)C(Cl)Cl
inactive: [8] 100 % of control | endpoint: mean survival time, dose: 200.0 mg/kg/injection, schedule: Q01DX001 (ip), vehicle: saline 100 % of control | endpoint: mean survival time, dose: 400.0 mg/kg/injection, schedule: Q01DX001 (ip), vehicle: saline 108 % of control

C1=CC=CCC=C1
inactive: endpoint: mean survival time, dose: 12.5 mg/kg/injection, schedule: Q01DX009 (ip), vehicle: saline with Tween-80 92 % of control | [9] 92 % of control | [4] 98 % of control

CCOC(=O)c1cc(=O)c2ccccc2[nH]1
inactive: endpoint: mean survival time, dose: 50.0 mg/kg/injection, schedule: Q01DX001 (ip), vehicle: saline with Tween-80 93 % of control | [2] 98 % of control | [3] 90 % of control

CCCCS(CCCC)=NS(=O)(=O)c1ccc(C)cc1
inactive: [1] 90 % of control | endpoint: mean survival time, dose: 100.0 mg/kg/injection, schedule: Q01DX009 (ip), vehicle: Klucel (hydroxypropylcellulose) (HPC) 94 % of control | endpoint: mean survival time, dose: 200.0 mg/kg/injection, schedule: Q01DX009 (ip), vehicle: Klucel (hydroxypropylcellulose) (HPC) 90 % of control

CN(CCO)c1c(Cl)c(=O)oc2ccc(Cl)cc12
inactive: [5] 97 % of control | [6] 101 % of control | [10] 106 % of control

CN(C)C(=O)NCCN(CCNC(=O)N(C)C)C(=O)N(C)C
inactive: [11] 98 % of control | [12] 96 % of control | [13] 94 % of control

CCOC(=O)CCCN(C)C(C)(C)C#N
inactive: [5] 103 % of control | [10] 108 % of control

CC(C)NC(=O)C1CC2c3cccc4[nH]cc(c34)CC2N(C)C1 (stereo not drawn)
inactive: [9] 101 % of control | [4] 98 % of control | [7] 96 % of control | [5] 102 % of control | [11] 105 % of control

C[N+]1(C)CC2CCCCC1C2=O (stereo not drawn)
inactive: [14] 111 % of control | [15] 101 % of control | [16] 98 % of control

CCOC(=O)c1ccc(NC(=O)Nc2nncs2)cc1
inactive: endpoint: mean survival time, dose: 6.25 mg/kg/injection, schedule: Q01DX009 (ip), vehicle: distilled water + Tween-80 101 % of control | endpoint: mean survival time, dose: 12.5 mg/kg/injection, schedule: Q01DX009 (ip), vehicle: distilled water + Tween-80 97 % of control and 103 % of control | endpoint: mean survival time, dose: 25.0 mg/kg/injection, schedule: Q01DX009 (ip), vehicle: distilled water + Tween-80 104 % of control and 107 % of control | endpoint: mean survival time, dose: 50.0 mg/kg/injection, schedule: Q01DX009 (ip), vehicle: distilled water + Tween-80 113 % of control and 115 % of control | endpoint: mean survival time, dose: 100.0 mg/kg/injection, schedule: Q01DX009 (ip), vehicle: distilled water + Tween-80 104 % of control and 112 % of control | endpoint: mean survival time, dose: 200.0 mg/kg/injection, schedule: Q01DX009 (ip), vehicle: distilled water + Tween-80 115 % of control

CCCCCCCCCC1=NC(C)(C)CN1C(C)(C)CO
inactive: endpoint: mean survival time, dose: 1.25 mg/kg/injection, schedule: Q01DX009 (ip), vehicle: saline with Tween-80 106 % of control | endpoint: mean survival time, dose: 2.5 mg/kg/injection, schedule: Q01DX009 (ip), vehicle: saline with Tween-80 109 % of control | endpoint: mean survival time, dose: 5.0 mg/kg/injection, schedule: Q01DX009 (ip), vehicle: saline with Tween-80 91 % of control

O=C1C=CC(=O)c2ccccc21
inactive: endpoint: mean survival time, dose: 1.0 mg/kg/injection, schedule: Q01DX009 (ip), vehicle: Klucel (hydroxypropylcellulose) (HPC) 94 % of control | endpoint: mean survival time, dose: 1.25 mg/kg/injection, schedule: Q04DX003 (ip), vehicle: saline with Tween-80 104 % of control | endpoint: mean survival time, dose: 2.0 mg/kg/injection, schedule: Q01DX009 (ip), vehicle: Klucel (hydroxypropylcellulose) (HPC) 102 % of control | endpoint: mean survival time, dose: 2.5 mg/kg/injection, schedule: Q04DX003 (ip), vehicle: saline with Tween-80 95 % of control | endpoint: mean survival time, dose: 4.0 mg/kg/injection, schedule: Q01DX009 (ip), vehicle: Klucel (hydroxypropylcellulose) (HPC) 102 % of control

CN(C)c1ccc(Cc2ccc(N(C)C)cc2)cc1
inactive: [11] 96 % of control | [12] 100 % of control | [13] 93 % of control

CC1NCCOC1c1ccccc1 (stereo not drawn)
inactive: [17] 100 % of control | [18] 102 % of control

OCC(O)C(O)C(O)C(/C=N/Nc1ccccc1)=N\Nc1ccccc1 (stereo not drawn)
inactive: [14] 95 % of control | [15] 100 % of control | [16] 97 % of control

Oc1ccc(Br)cc1/C=N/c1nc(-c2ccccc2)cs1.Oc1ccc(Br)cc1/C=N/c1nc(-c2ccccc2)cs1.[Zn]
inactive: endpoint: mean survival time, dose: 25.0 mg/kg/injection, schedule: Q01DX001 (ip), vehicle: saline 100 % of control | endpoint: mean survival time, dose: 50.0 mg/kg/injection, schedule: Q01DX001 (ip), vehicle: saline 100 % of control | [8] 100 % of control

COc1ccc(OC)c(C2(O)C=C(Cl)C(=O)C=C2Cl)c1 (stereo not drawn)
inactive: [2] 101 % of control | [3] 97 % of control

Cc1ccc(Oc2ccc([N+](=O)[O-])cc2)cc1
inactive: endpoint: mean survival time, dose: 50.0 mg/kg/injection, schedule: Q04DX003 (ip), vehicle: saline 101 % of control | [17] 100 % of control | [18] 94 % of control

CC(=O)OC1C2CCC(C2)C1C (stereo not drawn)
inactive: [11] 95 % of control | [12] 92 % of control | [13] 92 % of control

S=C1NCc2ccccc2N1
inactive: endpoint: mean survival time, dose: 25.0 mg/kg/injection, schedule: Q01DX001 (ip), vehicle: Klucel (hydroxypropylcellulose) (HPC) 101 % of control | endpoint: mean survival time, dose: 50.0 mg/kg/injection, schedule: Q01DX001 (ip), vehicle: Klucel (hydroxypropylcellulose) (HPC) 101 % of control | endpoint: mean survival time, dose: 100.0 mg/kg/injection, schedule: Q01DX001 (ip), vehicle: Klucel (hydroxypropylcellulose) (HPC) 112 % of control
